Data from patent publication EP3623370A1, “NOVEL TRF1 MODULATORS AND ANALOGUES THEREOF” (Fundación del Sector Público Estatal Centro Nacional de …, priority 2018, dated 2020).

target: T1, TRF1 (Mus musculus, UniProt P70371); assay: Measurement of TRF1 levels at telomere by immunofluorescence; format: cell-based; conditions: CHA9.3 cells (primary murine lung cancer cell line), compound at 10 µM, 24 hours, duplicates
T1 construct: endogenous in cells; host or cells: CHA9.3 primary murine lung cancer cell line
T1 sequence (P70371 1-421): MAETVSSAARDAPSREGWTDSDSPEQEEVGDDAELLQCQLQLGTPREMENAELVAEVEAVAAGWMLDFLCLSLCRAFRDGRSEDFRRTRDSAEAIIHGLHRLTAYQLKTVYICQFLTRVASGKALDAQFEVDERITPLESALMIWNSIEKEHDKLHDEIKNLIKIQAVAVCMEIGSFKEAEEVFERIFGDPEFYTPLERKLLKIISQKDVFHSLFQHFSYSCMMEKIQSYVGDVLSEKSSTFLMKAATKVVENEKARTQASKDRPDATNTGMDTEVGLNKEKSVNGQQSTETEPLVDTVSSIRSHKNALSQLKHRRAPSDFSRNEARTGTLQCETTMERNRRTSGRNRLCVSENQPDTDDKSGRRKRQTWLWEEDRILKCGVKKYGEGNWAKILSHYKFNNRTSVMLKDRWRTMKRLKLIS
Method: Assay was performed in CHA9.3, a primary murine cell line derived from a lung cancer. (Garcia-Beccaria et al., 2015). Cells were grown in DMEM (Gibco) supplemented with 10% FBS (fetal bovine serum), 1% penicillin/estreptomicen (Someglas 100U/ml) and 0.5% Amphotericin B (Gibco). Cells were incubated at 37 °C with 5% CO2. Cells were trypsinized with Trypsin-EDTA (Sigma) and washed with PBS (BioWhittaker) before counting and plating.
Cells were seeded in 10000 cells per 150 µl per well into black 96-well plates (Falcon) and incubated for 16 h at 37°C, 5% CO2. On day two, duplicates of each compound at 10 µM in DMSO were tested. The compounds were added to duplicate wells in 96-well cell plates using a FX BECKMAN robot (BeckmanCoulter) and were incubated at 37°C under CO2 atmosphere. After 24 hours, relative levels of TRF1 at telomeres were quantified by immunofluorescence. A rat monoclonal antibody against mouse TRF1 developed by the Monoclonal antibody unit at CNIO was used to detect endogenous TRF1.
First cells were fixed with 4 % formaldehyde (Sigma) in PBS (Alaos) during 13 minutes at room temperature (RT). After removal of the medium, cells were washed twice with PBS 10 minutes. Cells were permeabilized with a solution 0.2%Triton X-100 (Sigma) in PBS during 10 minutes at RT. After two more washes with PBS, cells were incubated with a solution 0.1%NaCitrate (Fluka) /0.1 %Triton X100 during 5 minutes at RT. After, two more washes with PBS cells were blocked with a solution 3% BSA (Sigma) in PBS-T, PBS with 0.05% Tween20 (Sigma), during 3 o 4 hours. Then, cells were incubated o/n at 4 °C with a dilution 1:750 of anti TRF1 antibody. After two washes of 10 minutes with PBS-T, cells were incubated with secondary antibody anti-rat 555 (Alexa Fluor) (1 :500) during 1 hour at RT: Then, 3 washes with PBS-T (0.05%) of 10 minutes and a last wash with PBS1X were performed. Nuclear staining was performed with Hoechst (Invitrogen) at de […] in PBS1X during10 minutes.
For quantification of TRF1 foci intensity, pictures of fixed cells were automatically acquired from each well by the Opera High Content Screening (HCS) system (Perkin Elmer). Forty images of random fields per well, with a 40xmagnification lens, were taken under non-saturating conditions. At least 1 × 10^3 cells were analyzed for each well. Briefly, images were segmented using the DAPI staining to generate masks matching cell nuclei from which-TRF1 foci were analyzed. Automatic analysis was performed with Acapela v2.0 software. Quantification of the inhibition of TRF1 levels at telomeres was performed with Pipeline platform.

Row | SMILES | inhibition at 10 µM
1 | NC(Cc1ccccc1)c1csc(Nc2ncccn2)n1 (racemic) [Compound 1] | 27.3%
2 | NC(Cc1ccccc1Br)c1csc(Nc2ncccn2)n1 (racemic) [Compound 2] | 29.8%
3 | NC(Cc1cccc(Br)c1)c1csc(Nc2ncccn2)n1 (racemic) [Compound 5] | 29.8%
4 | NC(Cc1ccc(Br)cc1)c1csc(Nc2ncccn2)n1 (racemic) [Compound 8] | 32.4%
5 | NC(Cc1cccc(Cl)c1)c1csc(Nc2ncccn2)n1 (racemic) [Compound 12] | 27.9%
6 | NC(Cc1ccc([N+](=O)[O-])cc1)c1csc(Nc2ncccn2)n1 (racemic) [Compound 14] | 0%
7 | C#CCOc1cccc(CC(N)c2csc(Nc3ncccn3)n2)c1 (racemic) [Compound 17] | 31.6%
8 | C#CCOc1ccc(CC(N)c2csc(Nc3ncccn3)n2)cc1 (racemic) [Compound 20] | 19.4%
9 | C#CCCCCOc1ccc(CC(N)c2csc(Nc3ncccn3)n2)cc1 (racemic) [Compound 26] | 0%
10 | C#Cc1cccc(CC(N)c2csc(Nc3ncccn3)n2)c1 (racemic) [Compound 58] | 27.1%
11 | C#Cc1cnc(Nc2nc(C(N)Cc3ccccc3)cs2)nc1 (racemic) [Compound 62] | 11.4%
12 | C#Cc1ccc(CC(N)c2csc(Nc3ncccn3)n2)cc1 (racemic) [Compound 66] | 18.1%
13 | C#CCOc1cccc(-c2sc(Nc3ncccn3)nc2C(N)Cc2ccccc2)c1 (racemic) [Compound 87] | 17.5%
14 | NC(Cc1ccccc1Br)c1csc(Nc2ncccn2)n1 (single isomer, unassigned) [Compound 3] | 25.4%
15 | NC(Cc1cccc(Br)c1)c1csc(Nc2ncccn2)n1 (single isomer, unassigned) [Compound 6] | 28.3%
16 | C#CCOc1cccc(CC(N)c2csc(Nc3ncccn3)n2)c1 (single isomer, unassigned) [Compound 18] | 33.8%
17 | C#CCOc1cccc(C[C@H](N)c2csc(Nc3ncccn3)n2)c1 [Compound 19] | 27.5%
18 | Cc1ccnc(Nc2nc([C@@H](N)Cc3ccccc3)cs2)n1 [Compound 33] | 30%
19 | N[C@@H](Cc1ccccc1)c1csc(Nc2ncc(Br)cn2)n1 [Compound 34] | 21%
20 | N[C@@H](Cc1ccccc1)c1csc(Nc2ccccn2)n1 [Compound 35] | 20.5%

Row | SMILES | inhibition at 10 µM
21 | Cc1cnc(Nc2nc([C@@H](N)Cc3ccccc3)cs2)nc1 [Compound 36] | 18.4%
22 | COc1cc(C)nc(Nc2nc([C@@H](N)Cc3ccccc3)cs2)n1 [Compound 37] | 9.77%
23 | Nc1ccc(CC(N)c2csc(Nc3ncccn3)n2)cc1 (centres unmarked) [Compound 52] | 10.5%
24 | C#Cc1cccc(C[C@@H](N)c2csc(Nc3ncccn3)n2)c1 [Compound 60] | 24.8%
25 | C#Cc1cccc(C[C@H](N)c2csc(Nc3ncccn3)n2)c1 [Compound 61] | 30.5%
26 | C#Cc1cnc(Nc2nc([C@H](N)Cc3ccccc3)cs2)nc1 [Compound 63] | 11.7%
27 | C#Cc1cnc(Nc2nc([C@@H](N)Cc3ccccc3)cs2)nc1 [Compound 64] | 6.41%
28 | C#Cc1ccc(C[C@@H](N)c2csc(Nc3ncccn3)n2)cc1 [Compound 68] | 31.2%
29 | C#Cc1ccc(C[C@H](N)c2csc(Nc3ncccn3)n2)cc1 [Compound 69] | 7.7%
30 | C#CCCC(=O)Nc1cnc(Nc2nc(C(N)Cc3ccc(F)cc3)cs2)nc1 (centres unmarked) [Compound 74] | 15.5%
31 | Nc1cccc(-c2sc(Nc3ncccn3)nc2C(N)Cc2ccccc2Br)c1 (centres unmarked) [Compound 78] | 27.8%
32 | C#Cc1cccc(-c2sc(Nc3ncccn3)nc2C(N)Cc2ccccc2)c1 (centres unmarked) [Compound 81] | 19.7%
33 | CC(=O)Nc1cccc(-c2sc(Nc3ncccn3)nc2C(N)Cc2ccccc2)c1 (centres unmarked) [Compound 83] | 17.2%
34 | COCCOc1cccc(-c2sc(Nc3ncccn3)nc2[C@@H](N)Cc2ccccc2)c1 [Compound 84] | 16.3%
35 | N[C@@H](Cc1ccccc1)c1nc(Nc2ncccn2)sc1Br [Compound 88] | 29.9%
36 | N[C@@H](Cc1ccccc1)c1nc(Nc2ncccn2)sc1-c1cccc(O)c1 [Compound 89] | 23%
37 | NC(Cc1cccc(O)c1)c1csc(Nc2ncccn2)n1 (centres unmarked) [Compound 105] | 29.5%
38 | NC(Cc1ccc(O)cc1)c1csc(Nc2ncccn2)n1 (centres unmarked) [Compound 120] | 20%
39 | C#CCOc1cccc(-c2sc(Nc3ncccn3)nc2[C@@H](N)Cc2ccccc2)c1 [Compound 122] | 5.33%
40 | C#CCOc1cccc(-c2sc(Nc3ncccn3)nc2[C@H](N)Cc2ccccc2)c1 [Compound 123] | 10.9%

same assay, conditions: CHA9.3 cells (primary murine lung cancer cell line), compound at 10 µM, 24 hours, duplicates; 10 µM

Row | SMILES | % inhibition of TRF1 levels
41 | NC(Cc1ccccc1Br)c1csc(Nc2ncccn2)n1 (single isomer, unassigned) [Compound 4] | 24.91%
42 | NC(Cc1cccc(Br)c1)c1csc(Nc2ncccn2)n1 (single isomer, unassigned) [Compound 7] | 28.55%

same assay, conditions: qualitative SAR statement in the description

Row | SMILES | TRF1 inhibition activity (active / inactive, in words)
43 | C#CCOc1cccc(CC(N)c2csc(Nc3ncccn3)n2)c1 (racemic) [Compound 17] | active
44 | C#CCOc1ccc(CC(N)c2csc(Nc3ncccn3)n2)cc1 (racemic) [Compound 20] | active
45 | C#CCOc1cccc(CC(N)c2csc(Nc3ncccn3)n2)c1 (single isomer, unassigned) [Compound 18] | active
46 | C#CCOc1cccc(C[C@H](N)c2csc(Nc3ncccn3)n2)c1 [Compound 19] | active
47 | COc1cc(C)nc(Nc2nc([C@@H](N)Cc3ccccc3)cs2)n1 [Compound 37] | active
